The values below come from patent US4810422A, “Bile acid derivatives, their salts and production thereof” (priority 1986, dated 1989).

The subject of data set [1] is P388 Mouse leukemia cells. The data set is described as follows: Carcinolytic effect: inhibition of ^3 H-thymidine intake in P388 leukemia cells. In kind it is cell-based. The conditions noted are these: 2 hours then 1 hour with ^3 H-thymidine, vs. solvent control; for Percent inhibition against ^3 H-thymidine intake: 50 μM, 37° C. On the procedure:
P388 Mouse leukemia cells which were subjected to passage transplantation in CDF1 mice were suspended in RPMI1640 culture fluid containing 20 mM HEPES to a cell density of 5×10^5 cells/ml, and 1 ml each of aliquots were apportioned into test tubes. Each of the test samples was added to the suspension to a final concentration of 50 μM, and each preparation was incubated at 37° C with shaking (100 shuttles/min.). Two hours thereafter, ^3 H-thymidine was added to a final concentration of 0.25 μCi/ml, and the incubation was further carried out for 1 hour. Then the radioactivity taken in the cells was measured by a conventional method.

Data set [2] relates to male ICR mice. Description: Toxicity: single administration, life span observed for 3 weeks. Type of data set: in vivo. The protocol: Separately, 500 mg/kg of the above test compound was administered intraperitoneally to a group of eight male ICR mice, and their life spans were similarly observed for 3 weeks.

Turning to `C[C@H](CCC(=O)O)[C@H]1CC[C@H]2[C@@H]3[C@H](O)C[C@@H]4C[C@H](O)CC[C@]4(C)[C@H]3C[C@H](O)[C@]12C` [Cholic acid, reference compound], the inhibition at 50 µM in data set [1] (Mus musculus, P388, 37° C, read-out: Percent inhibition against ^3 H-thymidine intake) amounted to 2%.
On to `C[C@H](CCC(=O)O)[C@H]1CC[C@H]2[C@@H]3[C@H](O)C[C@@H]4C[C@H](OC(=O)Cc5ccc(N(CCCl)CCCl)cc5)CC[C@]4(C)[C@H]3C[C@H](O)[C@]12C` [Compound No. 2, 3-O-[p-(N,N-bis(2-chloroethyl)amino)phenylacetyl] cholic acid], for which the “Percent inhibition against ^3 H-thymidine intake” value (shortened to “Percent inhibition”) in data set [1] amounted to 90%.
Same read-out and setting: to `C[C@H](CCC(=O)O)[C@H]1CC[C@H]2[C@@H]3[C@H](O)C[C@@H]4C[C@H](OC(=O)c5ccc(CN(CCCl)CCCl)cc5)CC[C@]4(C)[C@H]3C[C@H](O)[C@]12C` [Compound No. 31, 3-O-[p-(N,N-bis(2-chloroethyl)aminomethyl)benzoyl] cholic acid] belongs 94%.
On to `C[C@H](CCC(=O)O)[C@H]1CC[C@H]2[C@@H]3[C@H](O)C[C@@H]4C[C@H](OC(=O)CN(CCCl)CCCl)CC[C@]4(C)[C@H]3C[C@H](O)[C@]12C` [Compound No. 38, 3-O-[N,N-bis(2-chloroethyl)aminoacetyl] cholic acid], for which the “Percent inhibition” value in data set [1] was 83%. Besides, in data set [2] (500 mg/kg intraperitoneal, eight male ICR mice), the “mortality, intraperitoneal” value is listed as “No mortality case was observed”. Besides, the “mortality, oral” value in data set [2] (2,000 mg/kg oral once, 0.5% CMC, four male ICR mice) was “No mortality case was observed”.
`COc1ccc(COC(=O)CC[C@@H](C)[C@H]2CC[C@H]3[C@@H]4[C@H](O)C[C@@H]5C[C@H](OC(=O)c6ccc(OC(=O)N(CCCl)CCCl)cc6)CC[C@]5(C)[C@H]4C[C@H](O)[C@]23C)cc1` [Compound No. 52, p-Methoxybenzyl 3-O-[p-(N,N-bis(2-chloroethyl)aminocarbonyloxy)benzoyl] cholate]: the “Percent inhibition” value in data set [1] is recorded as 88%.

A word on the inhibition: it is the relative decrease from the control value, in per cent.
